Test results taken from patent US20210177869A1, “METHODS AND COMBINATIONS FOR MODULATING TOLERANCE TO OPIATES, OPIOIDS OR OPIOID ANALGESICS AND TREATING ACUTE AND CHRONIC PAIN” (CHINA MEDICAL UNIVERSITY, priority 2018, published 2021).

Experiments:
Type in all cases: in vivo
mice [1] = assay: Thermal hyperalgesia, hot plate test; conditions: for latencies of the first sign of pain in the hot-plate test, compared to vehicle: wild-type mice, SSZ 30 mg/kg/day, morphine 10 mg/kg/day, methadone 5 mg/kg/day or combinations for 8 days; for latency of first sign of pain in the hot-plate test: WT and xCT KO mice (both genotypes), ip morphine 10 mg/kg/day or methadone 4 mg/kg/day for 7 days; for analgesic effect in xCT KO mice compared to WT mice: hot plate and von Frey tests, morphine 10 mg/kg/day or methadone 4 mg/kg/day for 7 days
Description: (§1) The thermal hyperalgesia was evaluated by placing the mice in a 1000 ml beaker and on the 56±2° C. hot plate with the maximum of 35 second to prevent tissue damage. The time is recorded when the mice jumps on to the edge of the beaker, the value is considered as the withdrawal threshold. A customized transparent acrylic chamber with the size of 20×20×20 cm and 5 mm thick acrylic with 2 mm diameter holes throughout the entire platform is used to determine the mechanical allodynia and thermal hyperalgesia. Mice were placed in the chamber to evaluate the mechanical allodynia by applying a 0.6 g pressure von Frey hair (Touch-Test Sensory Evaluator, North Coast Medical, Inc) to the hind paws of the mice for five times with a five second interval. If the mice hind paw is withdrawn from the platform over three times, the pressure of the von Frey hair will be recorded and regarded as the withdrawal threshold.

mice [2] = assay: Mechanical allodynia, von Frey filament test; conditions: for withdraw threshold in von Frey filament test, compared to vehicle: wild-type mice, SSZ 30 mg/kg/day, morphine 10 mg/kg/day, methadone 5 mg/kg/day or combinations for 8 days; for withdraw threshold in von Frey filament test: WT and xCT KO mice (both genotypes), ip morphine 10 mg/kg/day or methadone 4 mg/kg/day for 7 days
Description: as §1

mice [3] = assay: Opioid tolerance, morphine percent maximal possible effect (% MPE) over 7 days; conditions: WT mice; for development of tolerance, in comparison to the morphine alone group / number of days of morphine-induced analgesic effect, in comparison to the morphine alone group: co-treatment with morphine 20 mg/kg/day, SSZ 60 mg/kg/day or capsazepine 10 mg/kg/day, twice daily 7 days
Description: To test whether system xc^− plays a role in opioid tolerance, WT and xCT KO mice were injected intraperitoneally with morphine twice daily and tested on 7 days continuously for determination of their respective morphine percent maximal possible effect (% MPE). Analgesic effect was expressed as % MPE, where % MPE=(test−baseline latency)/(cutoff−baseline)×100. […] Next, the WT mice were received the co-administration of system xc^− inhibitor, SSZ or capsazepine, and morphine twice daily for one-week observation.

morphine-dependent mice = assay: Naloxone-precipitated withdrawal jumping in mice with chronic morphine dependence; conditions: for naloxone-induced jumping behavior: naloxone 5 mg/kg + SSZ 30 mg/kg or capsazepine 5 mg/kg
Description: Chronic morphine dependence was induced by repeated injections for four consecutive days with an escalating dose schedule. Mice received morphine twice daily (morning and afternoon) for 4 days (day 1: 12 mg/kg and 25 mg/kg; day 2: 25 mg/kg and 50 mg/kg; day 3: 50 mg/kg and 75 mg/kg; day 4: 75 mg/kg and 100 mg/kg). On the testing day (day 5), a final morphine dose (50 mg/kg) was administered before exam.
A single dose of naloxone (5 mg/kg) was administered to all mice 60 mins after the final morphine dose. Immediately, following with naloxone injection, animals were placed into individual Plexiglas observation cylinders. Withdrawal jumping response symptoms were recorded and the frequency of jumps for each mouse was summed over one hour.
It was first determined whether system xc^− contributes to opioid dependence. WT and xCT KO mice were received the repeated injections for four consecutive days with an escalating dose schedule for the induction of chronic morphine dependence. Mice received morphine twice daily (morning and afternoon) for 4 days (day 1: 12 mg/kg and 25 mg/kg; day 2: 25 mg/kg and 50 mg/kg; day 3: 50 mg/kg and 75 mg/kg; day 4: 75 mg/kg and 100 mg/kg). On the testing day (day 5), a final morphine dose (50 mg/kg) was administered before naloxone-induced acute withdrawal syndromes. […] To observe the effect of system xc^− inhibits in opioid withdrawal, mice with chronic morphine dependence were randomly divided into the following groups (sample size N=6 in each group): group 1: control mice without any treatment; group 2: morphine-dependent mice with vehicle treatment; group 3: morphine-dependent mice with naloxone (5 mg/kg) treatment; group 4: morphine-dependent mice with naloxone (5 mg/kg)+methadone (10 mg/kg) treatment; group 5: morphine-dependent mice with naloxone (5 mg/kg)+SSZ (30 mg/kg) treatment; and group 6: morphine-dependent mice with naloxone (5 mg/kg)+capsazepine (5 mg/kg).

mice [4] = assay: Opioid-induced constipation, fecal collection and stool weight; conditions: wild-type mice; SSZ 30 mg/kg, morphine 10 mg/kg or combination, ip, 7 days
Description: Fecal collections and the stool weighed were recorded before and after morphine and/or SSZ administration. The fecal was collected every two days.
Opioid-induced constipation is a side effect for using opioid pain relief medication.

| SMILES | latencies of the first sign of pain in the hot-plate test, compared to vehicle (mice [1]) | withdraw threshold in von Frey filament test, compared to vehicle (mice [2]) | development of tolerance, in comparison to the morphine alone group (mice [3]) | number of days of morphine-induced analgesic effect, in comparison to the morphine alone group (mice [3]) | naloxone-induced jumping behavior (morphine-dependent mice) | opioid-induced constipation / defecation (stool weight) (mice [4]) | latency of first sign of pain in the hot-plate test (mice [1]) | analgesic effect in xCT KO mice compared to WT mice (mice [1]) | withdraw threshold in von Frey filament test (mice [2]) | opioid tolerance (% MPE) (mice [3]; morphine 20 mg/kg/day ip twice daily, 7 days) | jumping behavior (withdrawal) (morphine-dependent mice; naloxone 5 mg/kg, observed one hour) |
| --- | --- | --- | --- | --- | --- | --- | --- | --- | --- | --- | --- |
| O=C(O)c1cc(/N=N/c2ccc(S(=O)(=O)Nc3ccccn3)cc2)ccc1O [SSZ, sulfasalazine] | more than those in vehicle-treated mice | more than those in vehicle-treated mice | significantly attenuated the development of tolerance | prolong the number of days of morphine-induced analgesic effect | inhibited naloxone-induced jumping behavior | didn't decreased or increased defecation | – | – | – | – | – |
| Oc1cc2c(cc1O)CN(C(=S)NCCc1ccc(Cl)cc1)CCC2 [capsazepine] | – | – | significantly attenuated the development of tolerance | prolong the number of days of morphine-induced analgesic effect | inhibited naloxone-induced jumping behavior | – | – | – | – | – | – |
| CCC(=O)C(CC(C)N(C)C)(c1ccccc1)c1ccccc1 (stereo not shown) [methadone] | more than those in vehicle-treated mice | more than those in vehicle-treated mice | – | – | – | – | significantly increased | higher than that in WT mice | significantly increased | – | – |
| CN1CC[C@]23c4c5ccc(O)c4O[C@H]2[C@@H](O)C=C[C@H]3[C@H]1C5 [morphine] | more than those in vehicle-treated mice | more than those in vehicle-treated mice | – | – | – | developed the opioid-induced constipation | significantly increased | higher than that in WT mice | significantly increased | significant opioid tolerance on day 3 | – |
| C=CCN1CC[C@]23c4c5ccc(O)c4O[C@H]2C(=O)CC[C@@]3(O)[C@H]1C5 [naloxone] | – | – | – | – | – | – | – | – | – | – | significant jumping behavior compared to other groups |
